Test results as given in patent publication US20200055817A1 (AbbVie Deutschland GmbH & Co. KG, priority 2016, published 2020).

What was measured:
Type in all cases: cell-based
[1] = molecular target: T1, S1P4 (Homo sapiens, UniProt O95977); test: Aequorin assay, agonist potency, S1P4; conditions: agonist mode, aequorin luminescence
T1 sequence (O95977 1-384): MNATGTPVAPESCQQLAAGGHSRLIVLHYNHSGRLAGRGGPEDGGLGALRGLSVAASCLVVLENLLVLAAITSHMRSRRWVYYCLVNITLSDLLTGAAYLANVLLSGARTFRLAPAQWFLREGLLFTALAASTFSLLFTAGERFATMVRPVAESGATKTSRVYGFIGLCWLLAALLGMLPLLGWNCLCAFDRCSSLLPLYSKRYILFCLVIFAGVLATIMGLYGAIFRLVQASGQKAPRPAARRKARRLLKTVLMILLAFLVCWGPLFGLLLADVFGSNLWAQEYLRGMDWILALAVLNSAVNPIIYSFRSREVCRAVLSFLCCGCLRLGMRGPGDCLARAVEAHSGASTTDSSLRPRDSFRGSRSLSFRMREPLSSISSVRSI
Procedure: (§1) Agonistic activity was measured as described below.
(§2) 18 hours prior to the test, vials of frozen cells are quickly thawed in a 37° C. water bath, cells are recovered by centrifugation and resuspended in assay buffer (DMEM/HAM's F12 with HEPES, without phenol red+0.1% fatty acid-free BSA). Cells are gently agitated in suspension overnight at RT in presence of 5 μM of Coelenterazine h (Molecular Probes). On the day of the test, cells are diluted to their final working concentrations in assay buffer and agitated in suspension for 1 h at RT. Cells are then placed in the luminescence reader (Hamamatsu Functional Drug Screening System 6000, FDSS6000). During cells incubation, compounds are prepared in 100% DMSO, and subsequently diluted in assay buffer. Compounds are then dispensed in the assay plate (black, clear-bottom, 384-well plate). After binding of agonists to the human S1P receptor the intracellular calcium concentration increases and binding of calcium to the Aequorin/Coelenterazine complex leads to an oxidation reaction of coelenterazine, which results in the production of Aequorin, coelenteramide, CO2 and light (Dmax 469 nm). The luminescent response is dependent on the agonist concentration. For agonist testing, 30 μL of cell suspension are injected on 30 μL of test compound or reference agonist in the assay plate. The resulting emission of light is recorded for 90 seconds using the FDSS6000. Dose response curves with the reference compounds are performed before testing the compounds. S1P is the reference agonist and JTE-013 the reference antagonist for S1P2.
(§3) Luminescence data are integrated over the reading interval for agonist and antagonist modes. To standardize the emission of recorded light (determination of the “100% signal”) across plates and across different experiments, some of the wells contain 100 μM digitonin or a saturating concentration of ATP (20 μM). Plates also contain the reference agonist at a concentration equivalent to the EC80 obtained during the test validation and the EC100. Dose-response data from test compounds were analyzed with XLfit (IDBS) software using nonlinear regression applied to a sigmoidal dose-response model and the following equation: […]

[2] = molecular target: T2, human EDG1 (S1PR1) receptor (Homo sapiens, UniProt P21453); test: Aequorin assay, agonist potency, CHO-A21-Edg1#17 cells; conditions: agonist mode, aequorin luminescence; read-out: S1P1 EC50
T2 construct: expressed in transfected cells; host or cells: CHO-A21-Edg1#17 (CHO clone co-expressing mitochondrial aequorin and chimaeric Gaqi5)
Procedure: as §1
(§4) Cell clone CHO-A21-Edg1#17 carries the transgenes human EDG1 (S1PR1) receptor (Accession number NP_001391.2), mitochondrially targeted Aequorin (active part corresponds to accession number 1SL8_A) and chimaeric Gaqi5=Gaq modified with the 5 C-terminal amino-acids replaced with those of the Gai protein (DCGLF). CHO-A2-S1P3 Mix is a cell pool ectopically expressing human EDG3 (S1PR3) receptor (Accession number NP_005217.2) mitochondrially targeted Aequorin (active part has a sequence similar to accession number AY601106.1) and GNA16 (Accession number NP_002059.3). Cell clone CHO-A21-EDG8#12 carries the transgenes human EDG8 (S1PR5) receptor (Acession number NP_110387.1), mitochondrially expressed Aequorin (active part corresponds to accession number 1SL8_A) and chimaeric Gaqi5 (Gaq modified to present the 5 last amino-acids of the Gai protein “DCGLF”; see above). Cells are grown to mid-log phase in culture medium (HAM's F12, 10% FBS, 100 IU/mL penicillin, 100 μg/mL streptomycin, 250 μg/mL Zeocin, 400 μg/mL G418). 18 hours prior to frozen cells preparation, the medium is changed to remove the antibiotics.
as §2, §3

[3] = molecular target: T3, human EDG8 (S1PR5) receptor (Homo sapiens, UniProt Q9H228); test: Aequorin assay, agonist potency, CHO-A21-EDG8#12 cells; conditions: agonist mode, aequorin luminescence; read-out: S1P5 EC50 range #
T3 construct: carries the transgenes human EDG8 (S1PR5) receptor (Acession number NP_110387.1); expressed in transfected cells; host or cells: CHO-A21-EDG8#12 (CHO clone co-expressing mitochondrial aequorin and chimaeric Gaqi5)
Procedure: as §1, §4, §2, §3

T3 sequence (Q9H228 whole entry): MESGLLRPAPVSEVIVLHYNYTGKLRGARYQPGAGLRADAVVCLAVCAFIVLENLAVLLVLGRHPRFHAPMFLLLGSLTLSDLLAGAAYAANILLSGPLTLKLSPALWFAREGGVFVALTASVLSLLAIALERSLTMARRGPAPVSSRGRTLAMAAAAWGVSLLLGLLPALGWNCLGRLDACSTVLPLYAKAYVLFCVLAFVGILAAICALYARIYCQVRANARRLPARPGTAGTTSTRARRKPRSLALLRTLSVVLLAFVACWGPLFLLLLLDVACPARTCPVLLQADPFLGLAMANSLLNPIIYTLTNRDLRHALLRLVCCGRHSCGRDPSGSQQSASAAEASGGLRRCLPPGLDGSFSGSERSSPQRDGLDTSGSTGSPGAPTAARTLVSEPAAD
T2 sequence (P21453 whole entry): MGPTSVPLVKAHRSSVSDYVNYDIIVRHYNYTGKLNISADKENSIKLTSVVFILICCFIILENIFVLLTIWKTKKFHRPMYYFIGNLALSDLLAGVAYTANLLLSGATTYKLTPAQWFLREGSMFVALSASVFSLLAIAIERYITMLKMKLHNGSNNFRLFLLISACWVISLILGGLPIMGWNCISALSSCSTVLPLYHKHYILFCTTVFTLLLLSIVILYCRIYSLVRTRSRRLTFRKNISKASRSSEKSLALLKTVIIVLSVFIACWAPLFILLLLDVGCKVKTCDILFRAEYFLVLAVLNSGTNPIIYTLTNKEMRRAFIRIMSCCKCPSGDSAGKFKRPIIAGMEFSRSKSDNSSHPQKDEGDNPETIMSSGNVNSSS

Row | Compound | EC50 [1] [nM] | EC50 [2] [nM] | EC50 [3] [nM]
1 | CCOc1ccc(COc2ccc3c(c2)CC2(C3)CN(CC3(C(=O)O)CC3)C2)c(Cl)c1 [Example 32, 1-((5′-((2-chloro-4-ethoxybenzyl)oxy)-1′,3′-dihydrospiro[azetidine-3,2′-inden]-1-yl)methyl)cyclopropanecarboxylic acid] | < 1000 | > 1000 | 1000 to 10000
2 | O=C(O)C1(CN2CC3(Cc4ccc(OCc5ccc(Cl)cc5)cc4C3)C2)CC1 [Example 33, 1-((5′-((4-chlorobenzyl)oxy)-1′,3′-dihydrospiro[azetidine-3,2′-inden]-1-yl)methyl)cyclopropanecarboxylic acid] | < 1000 | > 1000 | 1000 to 10000
3 | O=C(O)C1(CN2CC3(Cc4ccc(OCc5c(F)cccc5Cl)cc4C3)C2)CC1 [Example 34, 1-((5′-((2-chloro-6-fluorobenzyl)oxy)-1′,3′-dihydrospiro[azetidine-3,2′-inden]-1-yl)methyl)cyclopropanecarboxylic acid compound with 2,2,2-trifluoroacetic acid (1:1)] | < 1000 | > 1000 | 1000 to 10000
4 | CCOc1ccc(COc2ccc3c(c2)CC2(C3)CN(CC3(C(=O)O)CC3)C2)cc1 [Example 35, 1-((5′-((4-ethoxybenzyl)oxy)-1′,3′-dihydrospiro[azetidine-3,2′-inden]-1-yl)methyl)cyclopropanecarboxylic acid] | < 1000 | > 1000 | 1000 to 10000
5 | O=C(O)C1(CN2CC3(Cc4ccc(OCc5cc(Cl)ccc5Cl)cc4C3)C2)CC1 [Example 36, 1-((5′-((2,5-dichlorobenzyl)oxy)-1′,3′-dihydrospiro[azetidine-3,2′-inden]-1-yl)methyl)cyclopropanecarboxylic acid compound with acetic acid (1:1)] | < 1000 | > 1000 | 1000 to 10000
6 | O=C(O)C1(CN2CC3(Cc4ccc(OCc5c(F)cccc5F)cc4C3)C2)CC1 [Example 37, 1-((5′-((2,6-difluorobenzyl)oxy)-1′,3′-dihydrospiro[azetidine-3,2′-inden]-1-yl)methyl)cyclopropanecarboxylic acid compound with 2,2,2-trifluoroacetic acid (1:1)] | < 1000 | > 1000 | 1000 to 10000
7 | O=C(O)C1(CN2CC3(Cc4ccc(OCc5ccc(Cl)cc5Cl)cc4C3)C2)CC1 [Example 38, 1-((5′-((2,4-dichlorobenzyl)oxy)-1′,3′-dihydrospiro[azetidine-3,2′-inden]-1-yl)methyl)cyclopropanecarboxylic acid] | < 1000 | > 1000 | 1000 to 10000
8 | COc1ccc(COc2ccc3c(c2)CC2(C3)CN(CC3(C(=O)O)CC3)C2)c(Cl)c1 [Example 40, 1-((5′-((2-chloro-4-methoxybenzyl)oxy)-1′,3′-dihydrospiro[azetidine-3,2′-inden]-1-yl)methyl)cyclopropanecarboxylic acid] | < 1000 | > 1000 | 1000 to 10000
9 | O=C(O)C1(CN2CC3(Cc4ccc(OCc5ccccc5C(F)(F)F)cc4C3)C2)CC1 [Example 41, 1-((5′-((2-(trifluoromethyl)benzyl)oxy)-1′,3′-dihydrospiro[azetidine-3,2′-inden]-1-yl)methyl)cyclopropanecarboxylic acid compound with 2,2,2-trifluoroacetic acid (1:1)] | < 1000 | > 1000 | 1000 to 10000
10 | Cc1cccc(F)c1COc1ccc2c(c1)CC1(C2)CN(CC2(C(=O)O)CC2)C1 [Example 42, 1-((5′-((2-fluoro-6-methylbenzyl)oxy)-1′,3′-dihydrospiro[azetidine-3,2′-inden]-1-yl)methyl)cyclopropanecarboxylic acid compound with 2,2,2-trifluoroacetic acid (1:1)] | < 1000 | > 1000 | 100 to 1000
11 | O=C(O)C1(CN2CC3(Cc4ccc(OCc5cc(F)ccc5C(F)(F)F)cc4C3)C2)CC1 [Example 43, 1-((5′-((5-fluoro-2-(trifluoromethyl)benzyl)oxy)-1′,3′-dihydrospiro[azetidine-3,2′-inden]-1-yl)methyl)cyclopropanecarboxylic acid Compound with 2,2,2-trifluoroacetic acid (1:1)] | < 1000 | > 1000 | 1000 to 10000
12 | O=C(O)C1(CN2CC3(Cc4ccc(OCc5c(Cl)cccc5C(F)(F)F)cc4C3)C2)CC1 [Example 47, 1-((5′-((2-chloro-6-(trifluoromethyl)benzyl)oxy)-1′,3′-dihydrospiro[azetidine-3,2′-inden]-1-yl)methyl)cyclopropanecarboxylic acid Compound with 2,2,2-trifluoroacetic acid (1:1)] | < 1000 | > 1000 | ≤ 10
13 | CCc1cccc(F)c1COc1ccc2c(c1)CC1(C2)CN(CC2(C(=O)O)CC2)C1 [Example 48, 1-((5′-((2-ethyl-6-fluorobenzyl)oxy)-1′,3′-dihydrospiro[azetidine-3,2′-inden]-1-yl)methyl)cyclopropanecarboxylic acid] | < 1000 | > 1000 | ≤ 10
14 | O=C(O)C1(CN2CC3(Cc4ccc(OCc5c(F)cccc5C(F)(F)F)cc4C3)C2)CC1 [Example 49, 1-((5′-((2-fluoro-6-(trifluoromethyl)benzyl)oxy)-1′,3′-dihydrospiro[azetidine-3,2′-inden]-1-yl)methyl)cyclopropanecarboxylic acid] | < 1000 | > 1000 | ≤ 10
15 | O=C(O)C1(CN2CC3(Cc4ccc(-c5ccc(OCc6ccccc6)cc5)cc4C3)C2)CC1 [Example 53, 1-((5′-(4-(benzyloxy)phenyl)-1′,3′-dihydrospiro[azetidine-3,2′-inden]-1-yl)methyl)cyclopropanecarboxylic acid] | < 1000 | > 1000 | 100 to 1000
16 | O=C(O)C1(CN2CC3(Cc4ccc(OCCc5ccccc5)cc4C3)C2)CC1 [Example 54, 1-((5′-phenethoxy-1′,3′-dihydrospiro[azetidine-3,2′-inden]-1-yl)methyl)cyclopropanecarboxylic acid] | < 1000 | > 1000 | 1000 to 10000
17 | O=C(O)C1(CN2CC3(Cc4ccc(OCCc5ccc(Cl)cc5)cc4C3)C2)CC1 [Example 55, 1-((5′-(4-chlorophenethoxy)-1′,3′-dihydrospiro[azetidine-3,2′-inden]-1-yl)methyl)cyclopropanecarboxylic acid] | < 1000 | > 1000 | 1000 to 10000
18 | O=C(O)C1(CN2CC3(Cc4ccc(OCCc5ccccc5C(F)(F)F)cc4C3)C2)CC1 [Example 56, 1-((5′-(2-(trifluoromethyl)phenethoxy)-1′,3′-dihydrospiro[azetidine-3,2′-inden]-1-yl)methyl)cyclopropanecarboxylic acid] | < 1000 | > 1000 | 10 to 100
